The test system of the test is luciferase light signal from pIB29EL (yopE-luxAB). The test is described as follows: microbe, parasite or virus in culture. In kind it is cell-based, Yersinia pseudotuberculosis. The conditions noted are these: for inhibition at 10 µM: read-out: Inhibition (%) of the luciferase light signal, 10 μM; for inhibition at 20 µM: read-out: Inhibition (%) of the luciferase light signal, 20 μM; for inhibition at 50 µM: read-out: Inhibition (%) of the luciferase light signal, 50 μM; for inhibition at 100 µM: read-out: Inhibition (%) of the luciferase light signal, 100 μM; for inhibition at 5 µM: read-out: Inhibition (%) of the luciferase light signal, 5 μM.

[1] abbreviates: Yersinia pseudotuberculosis, strain pIB29EL, Table 2C.
Setting [2] is: 10 μM, strain pIB29EL, Table 2C.
The mark [3] stands for this setting: 20 μM, strain pIB29EL, Table 2C.
[4] abbreviates: 50 μM, strain pIB29EL, Table 2C.
Setting [5] is: 100 μM, strain pIB29EL, Table 2C.

Each structure is given as a SMILES string.

As for `CC1(C)S[C@@H]2[C@H](NC(=O)C(C(=O)O)c3ccccc3)C(=O)N2[C@H]1C(=O)O` (stereo partly drawn) [Carbenicillin, reference compound], the IC50 (Yersinia pseudotuberculosis, read-out: IC50 (concentration resulting in 50% reduction of luciferase light emission)) was 15 µM. Moreover, the “Inhibition of light-emission (in words)” value (known antibiotics, pIB29EL) is reported as “dose-dependent inhibition of light-emission”.
With `O=C(N/N=C/c1cc(Br)cc(Br)c1O)c1cccnc1` [Compound 7], the “Inhibition (%) of the luciferase light signal” value (shortened to “Inhibition (%)”) (10 μM, pIB29EL, Table 2A) is 25%; the “Inhibition (%)” value (20 μM, pIB29EL, Table 2A) is given as 20%; the “Inhibition (%)” value (50 μM, pIB29EL, Table 2A) worked out at 68%; the “Inhibition (%)” value (100 μM, pIB29EL, Table 2A) amounted to 93%.
For `O=C(N/N=C/c1c(O)ccc2ccccc12)c1ccccc1` [Compound 9] the same measures were 9%, 21%, 41% and 49%.
With `C=CCc1cccc(/C=N/NC(=O)c2ccc([N+](=O)[O-])cc2)c1O` [Compound 10], the “Inhibition (%)” value stood at 30% (10 μM, pIB29EL, Table 2A); 49% (20 μM, pIB29EL, Table 2A); 56% (50 μM, pIB29EL, Table 2A); 57% (100 μM, pIB29EL, Table 2A).
For `CCCCCCc1cc(/C=N/NC(=O)c2ccc([N+](=O)[O-])cc2)c(O)cc1O` [Compound 11] the same measures were 30%, 42%, 69% and 80%.
On to `O=C(N/N=C/c1cc(O)ccc1O)c1ccco1` [Compound 12], for which the “Inhibition (%)” value (10 μM, pIB29EL, Table 2A) was 12%; the “Inhibition (%)” value (20 μM, pIB29EL, Table 2A) is 16%; the “Inhibition (%)” value (50 μM, pIB29EL, Table 2A) is listed as 41%; the “Inhibition (%)” value (100 μM, pIB29EL, Table 2A) worked out at 65%.
For `O=C(N/N=C/c1ccc(O)cc1O)c1cc2ccccc2cc1O` [Compound 13] the same measures were 26%, 47%, 69% and 73%.
For the compound `CC(=O)Oc1ccc(I)cc1C(=O)Nc1ccc(Cl)cc1` [Compound 16], the “Inhibition (%)” value by setting is: (5 μM (first of two columns headed 5), pIB29EL, Table 2B) 65%; (5 μM (second of two columns headed 5), pIB29EL, Table 2B) 97%; (10 μM, pIB29EL, Table 2B) 98%; (20 μM, pIB29EL, Table 2B) 97%.
Turning to `CC(=O)Oc1c(I)cc(I)cc1C(=O)Nc1ccc(F)cc1` [Compound 17], the “Inhibition (%)” value is, setting by setting: (10 μM, pIB29EL, Table 2A) 36%; (20 μM, pIB29EL, Table 2A) 42%; (50 μM, pIB29EL, Table 2A) 89%; (100 μM, pIB29EL, Table 2A) 90%.
The like results for `CC(=O)Oc1c(I)cc(I)cc1C(=O)Nc1ccccc1` [Compound 18] were, in that order, 11%, 51%, 70% and 62%.
For `CC(=O)Oc1c(Br)cc(Br)cc1C(=O)Nc1ccccc1F` [Compound 19] the same measures were 0%, 0%, 45% and 70%.
For `O=C(COc1ccccc1)N/N=C/c1c(O)ccc2ccccc12` [Compound 20], under setting [1], the inhibition – broadly, the change of the read-out against control, counted positive when it falls – at 10 µM is 2%; the inhibition at 20 µM turned out to be 5%; the inhibition at 50 µM was 19%; the inhibition at 100 µM worked out at 48%.
The like results for `C/C(=N\NC(=O)c1ccc([N+](=O)[O-])cc1)c1cc(Br)cc(Br)c1O` [Compound 21] were, in that order, 21%, 18%, 44% and 57%.
With `O=C(Nc1ccc(Cl)cc1)c1cc(I)ccc1O` [Compound 23], the “Inhibition (%)” value is, setting by setting: (5 μM, strain pIB29EL, Table 2C) 70%; under setting [2], 75%; under setting [3], 83%; under setting [4], 80%; under setting [5], 78%.
`O=C(Nc1ccc(Cl)cc1)c1ccccc1O` [Compound 24]: under setting [1], the inhibition at 5 µM was determined as 7%, the inhibition at 10 µM was found to be 30%, the inhibition at 20 µM came to 73% and the inhibition at 50 µM was determined as 90%. Moreover, the inhibition at 100 µM under setting [1] is 88%.
With `O=C(Nc1ccc(Cl)cc1)c1cc(I)cc(I)c1O` [Compound 25], under setting [1], the inhibition at 5 µM stood at 80%, the inhibition at 10 µM is 92%, the inhibition at 20 µM amounted to 93% and the inhibition at 50 µM amounted to 100%. Also, the inhibition at 100 µM under setting [1] came to 98%.
For `O=C(Nc1ccc(SC(F)(F)F)cc1)c1cc(I)cc(I)c1O` [Compound 26] the same measures were 15%, 15%, 41%, 84% and 93%.
As to `O=C(Nc1ccccc1F)c1cc(Br)cc(Br)c1O` [Compound 27], under setting [1], the inhibition at 5 µM came to 9%, the inhibition at 10 µM is 3%, the inhibition at 20 µM came to 1% and the inhibition at 50 µM turned out to be 13%. Also, the inhibition at 100 µM under setting [1] is 20%.
The like results for `CCCCCCCc1ccc(NC(=O)c2cc(I)cc(I)c2O)cc1` [Compound 28] were, in that order, 67%, 90%, 99%, 99% and 99%.
Consider `CC(C)(C)c1ccc(NC(=O)c2cc(I)cc(I)c2O)cc1` [Compound 29], for which, under setting [1], the inhibition at 5 µM came to 19%, the inhibition at 10 µM came to 18%, the inhibition at 20 µM was 21% and the inhibition at 50 µM came out at 30%. Moreover, the inhibition at 100 µM under setting [1] is 28%.
For `CC(=O)Oc1cc(C)ccc1C(=O)Nc1ccccc1F` [Compound 30] the same measures were 14%, 15%, 35%, 63% and 83%.
For the compound `O=C(Nc1ccccc1)c1cc(I)cc(I)c1O` [Compound 31], the “Inhibition (%)” value by setting is: (5 μM, strain pIB29EL, Table 2C) 10%; under setting [2], 30%; under setting [3], 60%; under setting [4], 77%; under setting [5], 98%.
On to `CC(C)(C)c1ccc(NC(=O)c2c(O)c(Cl)cc(Cl)c2Cl)cc1` [Compound 32], for which, under setting [1], the inhibition at 5 µM is 14%, the inhibition at 10 µM worked out at 23%, the inhibition at 20 µM stood at 37% and the inhibition at 50 µM is 42%. Besides, the inhibition at 100 µM under setting [1] is 46%.
For `CC(=O)Oc1c(I)cc(I)cc1C(=O)Nc1ccc(SC(F)(F)F)cc1` [Compound 33] the same measures were 71%, 70%, 68%, 69% and 71%.

The values above are taken from patent US7351861B2 (priority 2002, dated 2008).
